Values after ≈ are worked out from the molar mass of the structure shown.
Columns and labels:
Escherichia coli = assay: Spontaneous mutation frequency and mutation prevention concentration (MPC); format: cell-based
Source text: (§1) As used herein, “spontaneous mutation frequency” refers to the rate at which mutations arise in a bacterium that can lead to resistance to develop to an antimicrobial agent. “Mutation prevention concentration” or “MPC” refers to the lowest concentration of antimicrobial agent above which the selective proliferation of resistant mutants is expected to occur only rarely.

B. vulgatus = assay: as above; format: cell-based; details: B. vulgatus ATCC 8482
Source text: as §1

S. agalactiae = assay: as above; format: cell-based; details: S. agalactiae ATCC 13813
Source text: as §1

S. pneumonia = assay: as above; format: cell-based; details: S. pneumoniae ATCC 49619
Source text: as §1

S. pyogenes = assay: as above; format: cell-based; details: S. pyogenes ATCC 49399
Source text: as §1

B. fragilis ATCC 25285 = assay: Broth microdilution MIC (time-kill study); format: cell-based, Bacteroides fragilis
[1] = test system: Streptococcus spp. spontaneous mutants; assay: organism not typed; format: cell-based
Summary of the method: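 Spontaneous mutants from drug selection plates were tested by CLSI broth microdilution in MHB II with two-fold serial drug dilutions. Inoculum was about 5×10^5 CFU/mL, incubated aerobically at 35° C. for 18-20 hr. MIC was the lowest concentration inhibiting visible growth.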

E. coli ATCC 35218 = assay: Time-kill assay; format: cell-based, Escherichia coli; details: 2×, 4×, 8× MIC; 2, 6, 24 hr
[2] = E. coli ATCC 25922, rifaximin selection 4X MIC, 32 μg/mL
[3] = E. coli ATCC 25922, rifaximin selection 8X MIC, 64 μg/mL
[4] = E. coli ATCC 35218, rifaximin selection 4X MIC, 32 μg/mL, estimated by counting a quarter of the plate
[5] = E. coli ATCC 35218, rifaximin selection 8X MIC, 64 μg/mL, estimated by counting a quarter of the plate
[6] = E. coli MMX 1312, rifaximin selection 4X MIC, 16 μg/mL
[7] = E. coli MMX 1312, rifaximin selection 8X MIC, 32 μg/mL
[8] = rifaximin selection 4X MIC, 0.5 μg/mL
[9] = rifaximin selection 8X MIC, 1 μg/mL
[10] = rifaximin selection 4X MIC, 1 μg/mL
[11] = rifaximin selection 8X MIC, 2 μg/mL

CO[C@H]1/C=C/O[C@@]2(C)Oc3c(C)c(O)c4c(O)c(c5c(nc6cc(C)ccn65)c4c3C2=O)NC(=O)/C(C)=C\C=C\[C@H](C)[C@H](O)[C@@H](C)[C@@H](O)[C@@H](C)[C@H](OC(C)=O)[C@@H]1C [rifaximin]
MFC (Escherichia coli; E. coli ATCC 25922): >64 µg/mL
Average Count (Escherichia coli; [2]): TNTC
Count 1 (Escherichia coli; [2]): TNTC
Count 2 (Escherichia coli; [2]): TNTC
Spontaneous Mutation Frequency (Escherichia coli; E. coli ATCC 25922, rifaximin selection 4X MIC, 32 μg/mL, based on estimated count of >500 average CFU): >2.24 × 10^−8
Average Count (Escherichia coli; [3]): TNTC
Count 1 (Escherichia coli; [3]): TNTC
Count 2 (Escherichia coli; [3]): TNTC
Spontaneous Mutation Frequency (Escherichia coli; E. coli ATCC 25922, rifaximin selection 8X MIC, 64 μg/mL, based on estimated count of >500 average CFU): >2.24 × 10^−8
MFC (Escherichia coli; E. coli ATCC 35218): >64 µg/mL
Spontaneous Mutation Frequency (Escherichia coli; E. coli ATCC 35218, rifaximin selection 4X MIC, 32 μg/mL): 2.37 × 10^−8
Average Count (Escherichia coli; [4]): 688^2 CFU
Count 2 (Escherichia coli; [4]): 600^1 CFU
Spontaneous Mutation Frequency (Escherichia coli; E. coli ATCC 35218, rifaximin selection 8X MIC, 64 μg/mL): 1.15 × 10^−8
Average Count (Escherichia coli; [5]): 332^1 CFU
Count 1 (Escherichia coli; [5]): 360^1 CFU
Count 2 (Escherichia coli; [5]): 304^1 CFU
MFC (Escherichia coli; E. coli MMX 1312): >32 µg/mL
Average Count (Escherichia coli; [6]): TNTC
Count 1 (Escherichia coli; [6]): TNTC
Count 2 (Escherichia coli; [6]): TNTC
Spontaneous Mutation Frequency (Escherichia coli; E. coli MMX 1312, rifaximin selection 4X MIC, 16 μg/mL, based on estimated count of >500 average CFU): >2.06 × 10^−8
Average Count (Escherichia coli; [7]): TNTC
Count 1 (Escherichia coli; [7]): TNTC
Count 2 (Escherichia coli; [7]): TNTC
Spontaneous Mutation Frequency (Escherichia coli; E. coli MMX 1312, rifaximin selection 8X MIC, 32 μg/mL, based on estimated count of >500 average CFU): >2.06 × 10^−8
MFC (B. vulgatus): >1 µg/mL
Average Count (B. vulgatus; [8]): 5 CFU
Count 1 (B. vulgatus; [8]): 6 CFU
Count 2 (B. vulgatus; [8]): 4 CFU
Spontaneous Mutation Frequency (B. vulgatus; [8]): 8.70 × 10^−10
Average Count (B. vulgatus; [9]): 4 CFU
Count 1 (B. vulgatus; [9]): 2 CFU
Count 2 (B. vulgatus; [9]): 5 CFU
Spontaneous Mutation Frequency (B. vulgatus; [9]): 6.96 × 10^−10
MFC (S. agalactiae): >2 µg/mL
Average Count (S. agalactiae; [10]): 159 CFU
Count 1 (S. agalactiae; [10]): 180 CFU
Count 2 (S. agalactiae; [10]): 137 CFU
Spontaneous Mutation Frequency (S. agalactiae; [10]): 2.77 × 10^−8
Average Count (S. agalactiae; [11]): 115 CFU
Count 1 (S. agalactiae; [11]): 110 CFU
Count 2 (S. agalactiae; [11]): 120 CFU
Spontaneous Mutation Frequency (S. agalactiae; [11]): 2.00 × 10^−8
MFC (S. pneumonia): >0.25 µg/mL
MFC (S. pyogenes): >1 µg/mL
Average Count (S. pyogenes; [8]): 83 CFU
Count 1 (S. pyogenes; [8]): 78 CFU
Count 2 (S. pyogenes; [8]): 87 CFU
Spontaneous Mutation Frequency (S. pyogenes; [8]): 1.51 × 10^−8
Average Count (S. pyogenes; [9]): 84 CFU
Count 1 (S. pyogenes; [9]): 78 CFU
Count 2 (S. pyogenes; [9]): 89 CFU
Spontaneous Mutation Frequency (S. pyogenes; [9]): 1.53 × 10^−8
MIC (B. fragilis ATCC 25285; B. fragilis MMX 123 ATCC 25285): 0.5 µg/mL (≈ 0.636 µM)
MIC (B. fragilis ATCC 25285; broth microdilution): 0.05 µg/mL (≈ 0.0636 µM)
MIC ([1]; S. agaloctiae ATCC 13813, selected on rifaximin 4X MIC, Colony A): >8 µg/mL
MIC ([1]; S. agaloctiae ATCC 13813, selected on rifaximin 4X MIC, Colony B): >8 µg/mL
MIC ([1]; S. agaloctiae ATCC 13813, selected on rifaximin 8X MIC, Colony A): >8 µg/mL
MIC ([1]; S. agaloctiae ATCC 13813, selected on rifaximin 8X MIC, Colony B): >8 µg/mL
MIC ([1]; S. agaloctiae ATCC 13813 Parent): 0.12 µg/mL (≈ 0.153 µM)
MIC ([1]; S. pneumoniae ATCC 49619, selected on rifaximin 4X MIC, Colony A): >8 µg/mL
MIC ([1]; S. pneumoniae ATCC 49619, selected on rifaximin 4X MIC, Colony B): >8 µg/mL
MIC ([1]; S. pneumoniae ATCC 49619, selected on rifaximin 8X MIC, Colony A): >8 µg/mL
MIC ([1]; S. pneumoniae ATCC 49619, selected on rifaximin 8X MIC, Colony B): >8 µg/mL
MIC ([1]; S. pneumoniae ATCC 49619 Parent): 0.015 µg/mL (≈ 0.0191 µM)
MIC ([1]; S. pyogenes ATCC 49399, selected on rifaximin 4X MIC, Colony A): >8 µg/mL
MIC ([1]; S. pyogenes ATCC 49399, selected on rifaximin 4X MIC, Colony B): >8 µg/mL
MIC ([1]; S. pyogenes ATCC 49399, selected on rifaximin 8X MIC, Colony A): >8 µg/mL
MIC ([1]; S. pyogenes ATCC 49399, selected on rifaximin 8X MIC, Colony B): >8 µg/mL
MIC ([1]; S. pyogenes ATCC 49399 Parent): 0.06 µg/mL (≈ 0.0763 µM)
broth microdilution MIC of selected colonies relative to parent strain ([1]; colonies selected at 4× and 8× the MIC): several-fold higher
time-kill kinetics outcome (bactericidal = ≥3 log reduction in CFU per mL) (E. coli ATCC 35218): bacteriostatic at 8× the MIC with regrowth at 24 hr for both 2× and 4× the MIC

— US20210386367A1, “DEVICES AND SYSTEMS FOR GASTROINTESTINAL MICROBIOME DETECTION AND MANIPULATION” (Progenity, Inc., priority 2018, published 2021)
